The text below walks through data of ChEMBL document CHEMBL5291721, “A preclinical secondary pharmacology resource illuminates target-adverse drug reaction associations of marketed drugs” (Nat Commun, 2023).

One assay deals with T1, Endothelin-1 receptor (Homo sapiens, UniProt P25101).
T1 sequence (P25101 whole entry): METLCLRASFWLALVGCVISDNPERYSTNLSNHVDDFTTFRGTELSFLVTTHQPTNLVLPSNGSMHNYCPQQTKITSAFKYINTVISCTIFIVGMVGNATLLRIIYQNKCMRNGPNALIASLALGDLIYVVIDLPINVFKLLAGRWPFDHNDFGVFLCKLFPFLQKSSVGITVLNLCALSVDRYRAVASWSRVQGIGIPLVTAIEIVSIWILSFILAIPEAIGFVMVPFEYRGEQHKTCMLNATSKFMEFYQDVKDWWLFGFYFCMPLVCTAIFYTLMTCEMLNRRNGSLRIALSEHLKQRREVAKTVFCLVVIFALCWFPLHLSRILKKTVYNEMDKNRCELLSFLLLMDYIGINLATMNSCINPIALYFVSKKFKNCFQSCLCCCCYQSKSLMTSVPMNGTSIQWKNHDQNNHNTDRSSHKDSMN

Another assay deals with T2, Estrogen receptor (Homo sapiens, UniProt P03372).
T2 sequence (P03372 whole entry): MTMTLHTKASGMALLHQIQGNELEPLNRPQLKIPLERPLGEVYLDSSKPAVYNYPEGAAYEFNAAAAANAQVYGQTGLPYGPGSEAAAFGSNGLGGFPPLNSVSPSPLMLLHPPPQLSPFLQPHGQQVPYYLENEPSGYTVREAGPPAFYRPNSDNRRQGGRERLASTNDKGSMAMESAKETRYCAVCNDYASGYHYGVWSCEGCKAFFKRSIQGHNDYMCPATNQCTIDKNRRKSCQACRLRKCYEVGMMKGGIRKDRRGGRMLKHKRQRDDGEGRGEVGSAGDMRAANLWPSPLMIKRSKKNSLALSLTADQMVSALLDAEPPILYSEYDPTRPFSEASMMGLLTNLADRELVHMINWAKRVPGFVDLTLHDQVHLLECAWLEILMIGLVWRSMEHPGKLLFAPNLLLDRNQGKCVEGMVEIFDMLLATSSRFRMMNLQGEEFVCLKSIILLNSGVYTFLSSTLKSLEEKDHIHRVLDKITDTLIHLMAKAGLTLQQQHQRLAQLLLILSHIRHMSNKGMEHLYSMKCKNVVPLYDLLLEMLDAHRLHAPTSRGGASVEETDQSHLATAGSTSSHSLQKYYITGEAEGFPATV

The next assay concerns the target Histamine H3 receptor (Homo sapiens, UniProt Q9Y5N1).
Assay [1] deals with Voltage-dependent L-type calcium channel subunit alpha-1C (Rattus norvegicus, UniProt P22002). Format: functional.
In assay [2] the target is T3, Muscarinic acetylcholine receptor M2 (Homo sapiens, UniProt P08172).
T3 sequence (P08172 whole entry): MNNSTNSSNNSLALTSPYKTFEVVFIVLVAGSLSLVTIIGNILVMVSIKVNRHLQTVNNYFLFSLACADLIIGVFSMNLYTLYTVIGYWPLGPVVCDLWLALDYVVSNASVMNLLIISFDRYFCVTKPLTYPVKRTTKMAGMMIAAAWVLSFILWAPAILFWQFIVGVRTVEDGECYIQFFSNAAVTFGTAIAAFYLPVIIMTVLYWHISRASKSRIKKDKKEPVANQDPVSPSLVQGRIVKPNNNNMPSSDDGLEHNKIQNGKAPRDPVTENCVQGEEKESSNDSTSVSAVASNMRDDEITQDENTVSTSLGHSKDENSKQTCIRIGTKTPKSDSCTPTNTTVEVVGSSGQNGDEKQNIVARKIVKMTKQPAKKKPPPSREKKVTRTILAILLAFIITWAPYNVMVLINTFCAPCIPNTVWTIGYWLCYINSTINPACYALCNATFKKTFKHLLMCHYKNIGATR
Format: functional, cell-based.

The target in assay [3] is T3, Muscarinic acetylcholine receptor M2. The assay is classed as functional, cell-based. This is another data set of the same source.
Assay [4] deals with Muscarinic acetylcholine receptor M3 (Homo sapiens, UniProt P20309).
The target of a further assay is Cannabinoid receptor 1 (Homo sapiens, UniProt P21554). The assay is classed as functional, cell-based.
Another assay concerns the target Histamine H1 receptor (Homo sapiens, UniProt P35367).
In assay [5] the target is 5-hydroxytryptamine receptor 2A (Homo sapiens, UniProt P28223). Format: functional, cell-based.
For a further assay, the target named is Mu-type opioid receptor (Homo sapiens, UniProt P35372). The assay can be described thus: biochemical. The assay is classed as functional.
The target in assay [6] is T4, Alpha-1A adrenergic receptor (Homo sapiens, UniProt P35348).
T4 sequence (P35348 whole entry): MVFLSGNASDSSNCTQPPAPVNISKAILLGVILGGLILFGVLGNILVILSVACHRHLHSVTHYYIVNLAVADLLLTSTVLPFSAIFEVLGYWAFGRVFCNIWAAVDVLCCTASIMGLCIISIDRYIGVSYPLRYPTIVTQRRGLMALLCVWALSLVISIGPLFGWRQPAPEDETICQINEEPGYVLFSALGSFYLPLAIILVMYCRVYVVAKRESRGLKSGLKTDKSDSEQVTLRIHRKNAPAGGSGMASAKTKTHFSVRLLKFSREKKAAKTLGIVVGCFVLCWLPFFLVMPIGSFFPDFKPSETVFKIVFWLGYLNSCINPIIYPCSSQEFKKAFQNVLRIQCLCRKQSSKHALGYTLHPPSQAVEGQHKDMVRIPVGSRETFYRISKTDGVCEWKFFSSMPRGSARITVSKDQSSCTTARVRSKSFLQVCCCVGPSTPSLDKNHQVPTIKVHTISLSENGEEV
Format: functional, cell-based.

Each structure is given as a SMILES string.
Also: assay procedure not described here.

Chain of Muscarinic acetylcholine receptor M3 (P20309 whole entry): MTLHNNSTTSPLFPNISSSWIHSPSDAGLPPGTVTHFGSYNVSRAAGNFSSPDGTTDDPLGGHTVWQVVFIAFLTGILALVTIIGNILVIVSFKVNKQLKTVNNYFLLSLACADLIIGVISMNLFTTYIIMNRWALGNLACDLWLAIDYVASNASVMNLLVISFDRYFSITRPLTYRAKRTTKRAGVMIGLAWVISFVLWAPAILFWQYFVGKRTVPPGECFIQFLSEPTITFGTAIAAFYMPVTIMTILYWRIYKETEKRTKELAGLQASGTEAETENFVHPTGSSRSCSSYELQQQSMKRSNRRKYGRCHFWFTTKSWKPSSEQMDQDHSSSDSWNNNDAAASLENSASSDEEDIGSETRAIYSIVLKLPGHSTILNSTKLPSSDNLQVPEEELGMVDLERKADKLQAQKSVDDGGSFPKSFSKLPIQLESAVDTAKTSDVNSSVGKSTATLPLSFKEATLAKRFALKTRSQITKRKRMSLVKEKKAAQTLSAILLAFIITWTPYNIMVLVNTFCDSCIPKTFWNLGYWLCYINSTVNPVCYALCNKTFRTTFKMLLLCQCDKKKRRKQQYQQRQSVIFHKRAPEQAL
Chain of Histamine H3 receptor (Q9Y5N1 whole entry): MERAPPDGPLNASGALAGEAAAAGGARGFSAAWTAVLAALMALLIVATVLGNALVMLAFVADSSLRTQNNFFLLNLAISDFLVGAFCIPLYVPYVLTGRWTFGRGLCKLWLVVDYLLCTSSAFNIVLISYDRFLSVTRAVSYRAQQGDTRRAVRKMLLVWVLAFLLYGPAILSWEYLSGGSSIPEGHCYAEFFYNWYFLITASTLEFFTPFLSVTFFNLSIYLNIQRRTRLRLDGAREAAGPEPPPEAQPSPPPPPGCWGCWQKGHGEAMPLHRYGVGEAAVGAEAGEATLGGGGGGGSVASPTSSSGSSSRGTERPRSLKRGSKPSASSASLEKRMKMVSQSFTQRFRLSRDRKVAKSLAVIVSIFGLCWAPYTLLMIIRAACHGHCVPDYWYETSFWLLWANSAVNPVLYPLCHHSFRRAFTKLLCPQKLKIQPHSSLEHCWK
Chain of Histamine H1 receptor (P35367 whole entry): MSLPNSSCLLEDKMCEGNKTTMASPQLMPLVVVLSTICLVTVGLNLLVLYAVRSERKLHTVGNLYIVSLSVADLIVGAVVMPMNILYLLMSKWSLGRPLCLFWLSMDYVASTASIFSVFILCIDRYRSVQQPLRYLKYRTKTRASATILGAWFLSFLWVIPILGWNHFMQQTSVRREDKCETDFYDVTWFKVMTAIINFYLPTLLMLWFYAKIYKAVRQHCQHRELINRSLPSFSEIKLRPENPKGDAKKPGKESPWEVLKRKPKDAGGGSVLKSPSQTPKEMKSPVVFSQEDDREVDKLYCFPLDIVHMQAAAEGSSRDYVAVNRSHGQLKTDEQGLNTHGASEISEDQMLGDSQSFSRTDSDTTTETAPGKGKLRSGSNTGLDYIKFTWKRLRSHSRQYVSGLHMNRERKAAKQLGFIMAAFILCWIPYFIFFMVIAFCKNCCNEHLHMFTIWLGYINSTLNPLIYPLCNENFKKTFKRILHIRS
Chain of Voltage-dependent L-type calcium channel subunit alpha-1C (P22002 whole entry): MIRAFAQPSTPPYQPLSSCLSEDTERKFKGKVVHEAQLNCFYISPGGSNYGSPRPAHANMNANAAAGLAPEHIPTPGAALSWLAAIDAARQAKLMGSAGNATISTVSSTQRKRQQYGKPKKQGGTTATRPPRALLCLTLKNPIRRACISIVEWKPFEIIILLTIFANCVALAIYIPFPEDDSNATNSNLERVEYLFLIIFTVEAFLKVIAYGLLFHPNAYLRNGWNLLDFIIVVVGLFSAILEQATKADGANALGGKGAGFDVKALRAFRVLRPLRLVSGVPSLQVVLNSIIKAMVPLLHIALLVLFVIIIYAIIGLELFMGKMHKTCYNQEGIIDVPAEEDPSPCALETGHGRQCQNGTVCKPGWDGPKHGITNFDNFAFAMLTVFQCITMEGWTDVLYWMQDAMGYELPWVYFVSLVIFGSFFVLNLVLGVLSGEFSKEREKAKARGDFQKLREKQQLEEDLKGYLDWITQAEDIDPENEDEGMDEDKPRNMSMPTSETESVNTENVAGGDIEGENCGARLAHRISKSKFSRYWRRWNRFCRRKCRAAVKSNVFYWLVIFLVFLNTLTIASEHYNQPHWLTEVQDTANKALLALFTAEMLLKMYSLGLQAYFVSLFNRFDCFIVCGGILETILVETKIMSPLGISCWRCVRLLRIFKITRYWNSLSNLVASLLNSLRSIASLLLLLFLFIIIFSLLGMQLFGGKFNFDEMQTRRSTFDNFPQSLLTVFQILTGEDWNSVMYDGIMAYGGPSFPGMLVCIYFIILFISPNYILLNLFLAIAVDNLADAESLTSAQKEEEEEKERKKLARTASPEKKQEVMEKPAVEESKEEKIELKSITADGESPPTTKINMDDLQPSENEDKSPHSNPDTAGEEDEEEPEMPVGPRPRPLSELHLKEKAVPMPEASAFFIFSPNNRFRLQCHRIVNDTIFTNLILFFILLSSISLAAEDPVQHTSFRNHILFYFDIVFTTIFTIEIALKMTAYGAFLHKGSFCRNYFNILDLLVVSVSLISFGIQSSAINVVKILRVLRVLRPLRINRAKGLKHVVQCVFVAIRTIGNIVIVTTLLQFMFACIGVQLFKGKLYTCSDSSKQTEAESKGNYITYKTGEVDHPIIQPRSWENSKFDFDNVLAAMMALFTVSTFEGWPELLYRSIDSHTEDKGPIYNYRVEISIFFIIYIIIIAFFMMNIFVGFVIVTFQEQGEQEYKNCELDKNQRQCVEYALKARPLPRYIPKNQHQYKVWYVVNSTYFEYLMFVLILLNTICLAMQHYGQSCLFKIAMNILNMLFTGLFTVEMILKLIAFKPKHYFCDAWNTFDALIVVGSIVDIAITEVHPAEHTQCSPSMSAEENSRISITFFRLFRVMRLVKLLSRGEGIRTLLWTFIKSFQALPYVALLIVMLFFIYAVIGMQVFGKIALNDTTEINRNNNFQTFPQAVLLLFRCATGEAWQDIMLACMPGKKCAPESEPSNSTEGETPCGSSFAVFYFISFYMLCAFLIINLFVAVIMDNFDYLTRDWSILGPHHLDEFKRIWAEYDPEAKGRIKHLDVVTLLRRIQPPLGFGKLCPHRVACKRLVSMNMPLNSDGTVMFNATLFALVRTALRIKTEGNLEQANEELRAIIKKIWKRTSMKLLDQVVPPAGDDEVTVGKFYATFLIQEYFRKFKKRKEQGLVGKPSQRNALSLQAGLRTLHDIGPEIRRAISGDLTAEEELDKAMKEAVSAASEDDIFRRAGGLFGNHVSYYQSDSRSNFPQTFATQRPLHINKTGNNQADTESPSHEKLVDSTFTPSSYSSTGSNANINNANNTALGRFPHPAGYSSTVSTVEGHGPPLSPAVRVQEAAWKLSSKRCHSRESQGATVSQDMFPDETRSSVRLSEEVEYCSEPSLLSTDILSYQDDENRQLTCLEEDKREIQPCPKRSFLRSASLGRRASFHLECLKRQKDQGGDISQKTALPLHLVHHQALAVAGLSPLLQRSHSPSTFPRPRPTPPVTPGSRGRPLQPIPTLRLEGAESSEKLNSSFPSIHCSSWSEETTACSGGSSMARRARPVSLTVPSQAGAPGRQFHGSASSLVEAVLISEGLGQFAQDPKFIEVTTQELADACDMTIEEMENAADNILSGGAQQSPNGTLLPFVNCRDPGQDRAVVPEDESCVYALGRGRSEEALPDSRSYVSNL
Chain of Mu-type opioid receptor (P35372 whole entry): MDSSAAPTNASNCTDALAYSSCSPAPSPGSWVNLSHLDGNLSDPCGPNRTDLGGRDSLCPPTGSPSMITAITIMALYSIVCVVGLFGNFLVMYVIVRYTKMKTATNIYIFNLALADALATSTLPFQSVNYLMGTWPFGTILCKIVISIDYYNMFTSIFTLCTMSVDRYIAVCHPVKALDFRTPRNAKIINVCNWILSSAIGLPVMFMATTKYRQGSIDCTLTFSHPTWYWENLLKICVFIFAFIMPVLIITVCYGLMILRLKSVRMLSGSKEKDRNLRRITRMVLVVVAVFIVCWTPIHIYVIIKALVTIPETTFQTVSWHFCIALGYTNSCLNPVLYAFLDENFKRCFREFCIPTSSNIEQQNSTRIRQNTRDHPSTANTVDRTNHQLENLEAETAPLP
Chain of Cannabinoid receptor 1 (P21554 whole entry): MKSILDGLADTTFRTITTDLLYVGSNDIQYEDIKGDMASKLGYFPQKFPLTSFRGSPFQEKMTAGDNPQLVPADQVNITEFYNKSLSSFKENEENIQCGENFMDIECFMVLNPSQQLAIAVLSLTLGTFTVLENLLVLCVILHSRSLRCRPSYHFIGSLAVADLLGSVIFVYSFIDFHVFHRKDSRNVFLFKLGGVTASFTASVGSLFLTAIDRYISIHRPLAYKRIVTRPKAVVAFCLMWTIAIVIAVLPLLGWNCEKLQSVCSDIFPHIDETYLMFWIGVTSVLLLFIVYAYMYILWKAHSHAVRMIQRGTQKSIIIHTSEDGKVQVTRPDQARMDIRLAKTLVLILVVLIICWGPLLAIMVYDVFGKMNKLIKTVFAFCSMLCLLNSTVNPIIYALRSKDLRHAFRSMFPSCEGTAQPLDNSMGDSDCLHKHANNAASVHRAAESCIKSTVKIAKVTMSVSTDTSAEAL
Chain of 5-hydroxytryptamine receptor 2A (P28223 whole entry): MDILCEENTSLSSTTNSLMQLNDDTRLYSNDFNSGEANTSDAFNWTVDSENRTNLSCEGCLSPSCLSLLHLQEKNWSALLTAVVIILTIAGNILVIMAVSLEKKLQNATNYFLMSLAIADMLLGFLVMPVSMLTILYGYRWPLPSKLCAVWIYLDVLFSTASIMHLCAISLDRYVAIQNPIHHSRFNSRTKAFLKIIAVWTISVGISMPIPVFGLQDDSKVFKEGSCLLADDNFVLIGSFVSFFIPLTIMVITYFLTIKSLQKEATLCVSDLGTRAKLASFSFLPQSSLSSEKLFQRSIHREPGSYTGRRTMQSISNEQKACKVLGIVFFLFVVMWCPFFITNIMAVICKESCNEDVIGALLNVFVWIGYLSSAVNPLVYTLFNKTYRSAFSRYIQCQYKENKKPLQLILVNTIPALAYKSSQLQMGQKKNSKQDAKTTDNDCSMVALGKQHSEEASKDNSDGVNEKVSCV

For orientation: AC50 means the concentration at which the activity in the assay is half-maximal. Regarding `CN(C)C(=O)Oc1cc(OC(=O)N(C)C)cc(C(O)CNC(C)(C)C)c1` (centres undefined) [BAMBUTEROL], the AC50 at Endothelin-1 receptor, on Estrogen receptor and at Histamine H3 receptor was more than 30 µM throughout.

As for `C[C@@H]1CCC[C@H](C)N1NC(=O)c1ccc(Cl)c(S(N)(=O)=O)c1` [CLOPAMIDE], the AC50 (in assay [1]; in [2]; in assay [3]; in assay [4]; at Cannabinoid receptor 1; at Endothelin-1 receptor) was more than 30 µM throughout. Also, the AC50 (on Estrogen receptor; at Histamine H1 receptor; in assay [5]; at Mu-type opioid receptor; in [6]; on Histamine H3 receptor) was more than 30 µM in each case.

For `O=C(O)CSCC(=O)NC1CCSC1=O` (centres undefined) [ERDOSTEINE], the AC50 (in [1]; in assay [2]; in assay [3]; in assay [4]; at Cannabinoid receptor 1; at Endothelin-1 receptor) was more than 30 µM in each case. For the same compound, the half-maximal activity concentration (AC50) (at Histamine H1 receptor; in assay [5]; at Mu-type opioid receptor; in assay [6]; at Histamine H3 receptor) was more than 30 µM throughout.

Regarding `N=C(N)c1ccc2cc(OC(=O)c3ccc(N=C(N)N)cc3)ccc2c1` [NAFAMOSTAT], the AC50 in assay [1] was more than 30 µM; in [2], more than 30 µM; in assay [3], 12 µM; in [4], 15 µM; at Cannabinoid receptor 1, more than 30 µM; at Endothelin-1 receptor, more than 30 µM. In addition, the concentration at half-maximal activity (AC50) is more than 30 µM on Histamine H1 receptor; more than 30 µM in assay [5]; more than 30 µM at Mu-type opioid receptor; 15 µM in [6]; 7.9 µM at Histamine H3 receptor.

In the case of `CNC(=O)Oc1ccc2c(c1)[C@]1(C)CCN(C)[C@@H]1N2C` [PHYSOSTIGMINE], the half-maximal activity concentration (AC50) (in assay [1]; in [2]; in [3]; at Cannabinoid receptor 1; at Endothelin-1 receptor; on Estrogen receptor) was more than 30 µM throughout. The half-maximal activity concentration (AC50) is more than 30 µM at Mu-type opioid receptor, more than 30 µM in assay [6] and 16 µM at Histamine H3 receptor.

As for `O=C(O)c1cc(O)c2c3nc4ccccc4oc-3cc(=O)c2n1` [PIRENOXINE], the AC50 in assay [1] was 0.72 µM; in [2], more than 30 µM; in assay [3], more than 30 µM; in assay [4], 2.2 µM; on Cannabinoid receptor 1, more than 30 µM; at Endothelin-1 receptor, more than 30 µM. The half-maximal activity concentration (AC50) on Histamine H1 receptor is 11 µM; in assay [5] it was more than 30 µM; on Mu-type opioid receptor, more than 30 µM; in [6], more than 30 µM; on Histamine H3 receptor it was more than 30 µM.

As to `NS(=O)(=O)c1cc(C(=O)O)cc(N2CCCC2)c1Oc1ccccc1` [PIRETANIDE], the AC50 (in assay [1]; in assay [2]; in assay [3]; in [4]; at Cannabinoid receptor 1; at Endothelin-1 receptor) was more than 30 µM throughout. Also, the half-maximal activity concentration (AC50) (on Estrogen receptor; at Histamine H1 receptor; in assay [5]; at Mu-type opioid receptor; at Histamine H3 receptor) was more than 30 µM in each case.

As to `O=C(CCCN1CCC2(CC1)C(=O)NCN2c1ccccc1)c1ccc(F)cc1` [SPIPERONE], the AC50 in [4] is more than 30 µM; on Cannabinoid receptor 1, more than 30 µM; on Endothelin-1 receptor, more than 30 µM; on Histamine H1 receptor, 1.4 µM; in [6], 1.6 µM; on Histamine H3 receptor, 9.2 µM.

As for `CCSc1ccc2c(c1)N(CCCN1CCN(C)CC1)c1ccccc1S2` [THIETHYLPERAZINE], the AC50 is more than 30 µM in assay [2]; more than 10 µM in [3]; 0.17 µM on Histamine H1 receptor; 1.6 µM in [5]; 1.6 µM in assay [6].
